Measured values taken from patent US6737383B1, “Herbicidal oxadiazolidines” (priority 1999, dated 2004).

Key:
bedstraw = experiment: Test B pre/postemergence bedstraw; assay type: in vivo, Galium aparine; details: Postemergence
How it was run: (§1)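 Response is a visual 0-to-10 score relative to untreated plants, where 0 means no effect and 10 means complete control, taken twelve to sixteen days after application. Treatments went onto soil at planting and onto foliage of 1- to 4-leaf plants, using a surfactant-containing non-phytotoxic solvent.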

blackgrass = experiment: Test B pre/postemergence blackgrass; assay type: in vivo, Alopecurus myosuroides
How it was run: as §1

surinam grass = experiment: Test B pre/postemergence surinam grass; assay type: in vivo, Brachiaria decumbens
How it was run: as §1

cocklebur = experiment: Test B pre/postemergence cocklebur; assay type: in vivo, Xanthium strumarium
How it was run: as §1

corn = experiment: Test B pre/postemergence corn; assay type: in vivo, Zea mays
How it was run: as §1

crabgrass = experiment: Test B pre/postemergence crabgrass; assay type: in vivo, Digitaria sanguinalis
How it was run: as §1

giant foxtail = experiment: Test B pre/postemergence giant foxtail; assay type: in vivo, Setaria faberii
How it was run: as §1

morningglory = experiment: Test B pre/postemergence morningglory; assay type: in vivo, Ipomoea hederacea
How it was run: as §1

pigweed = experiment: Test B pre/postemergence pigweed; assay type: in vivo, Amaranthus retroflexus
How it was run: as §1

rape = experiment: Test B pre/postemergence rape; assay type: in vivo, Brassica napus
How it was run: as §1

soybean = experiment: Test B pre/postemergence soybean; assay type: in vivo, Glycine max
How it was run: as §1

sugar beet = experiment: Test B pre/postemergence sugar beet; assay type: in vivo, Beta vulgaris
How it was run: as §1

velvetleaf = experiment: Test B pre/postemergence velvetleaf; assay type: in vivo, Abutilon theophrasti
How it was run: as §1

wheat = experiment: Test B pre/postemergence wheat; assay type: in vivo, Triticum aestivum
How it was run: as §1

wild oat = experiment: Test B pre/postemergence wild oat; assay type: in vivo, Avena fatua
How it was run: as §1

purple nutsedge = experiment: Test B pre/postemergence purple nutsedge; assay type: in vivo, Cyperus rotundus
How it was run: as §1

rice = experiment: Test B flood test rice; assay type: in vivo, Oryza sativa
How it was run: (§2)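 Each value is a visual injury score relative to controls, with 10 meaning complete control and 0 no effect. Evaluation took place twelve to sixteen days after the 2-leaf-stage plants were treated and kept in the greenhouse.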

smallflower flatsedge = experiment: Test B flood test smallflower flatsedge; assay type: in vivo, Cyperus difformis
How it was run: as §2

duck salad = experiment: Test B flood test duck salad; assay type: in vivo, Heteranthera limosa
How it was run: as §2

bamyardgrass = experiment: Test B flood test barnyardgrass; assay type: in vivo, Echinochloa crus-galli
How it was run: as §2

[1] = Postemergence, Rate 125 g/ha, scale 0 to 10, 0 is no effect, 10 is complete control
[2] = Postemergence, Rate 250 g/ha, scale 0 to 10
[3] = Postemergence, Rate 500 g/ha, scale 0 to 10, 0 is no effect, 10 is complete control
[4] = Preemergence, Rate 62 g/ha, scale of 0 to 10 where 0 is no effect and 10 is complete control
[5] = Preemergence, Rate 125 g/ha, scale 0 to 10, 0 is no effect, 10 is complete control
[6] = Preemergence, Rate 250 g/ha, scale 0 to 10, 0 is no effect, 10 is complete control
[7] = Preemergence, Rate 500 g/ha, scale 0 to 10, 0 is no effect, 10 is complete control
[8] = Rate 62 g/ha, Postemergence, scale 0 to 10 (0 no effect, 10 complete control)
[9] = Rate 62 g/ha, flood test species, Pre-emergence, visual evaluation after twelve to sixteen days
[10] = Rate 125 g/ha, under heading Pre-emergence, flood test species, visual evaluation after twelve to sixteen days
[11] = Rate 250 g/ha, Pre-emergence (flood test species), scale 0 to 10, 0 is no effect, 10 is complete control
[12] = Rate 500 g/ha, Pre-emergence section of Table B, 0 to 10 scale (0 no effect, 10 complete control)

CC(C)C(=O)Cn1c(=O)on(C(=O)N(c2ccc(Cl)cc2)C(C)C)c1=O [Compound 487]
7: Blackgrass plant response rating (blackgrass; [6])
4: Soybean plant response rating (soybean; [1])
2: Bedstraw plant response rating (bedstraw; Rate 125 g/ha, scale 0 to 10, 0 is no effect, 10 is complete control) | Plant response rating, Blackgrass (blackgrass; [4]) | Giant foxtail plant response rating (giant foxtail; [1]) | Morningglory plant response rating (morningglory; [8]) | Redroot pigweed plant response rating (pigweed; [1]) | Plant response rating, Velvetleaf (velvetleaf; [3])
5: B. signalgrass plant response rating (surinam grass; [7]) | Crabgrass plant response rating (crabgrass; [2]) | Plant response rating, Crabgrass (crabgrass; [3]) | Plant response rating, Soybean (soybean; [3])
10: Crabgrass plant response rating (crabgrass; [7]) | Giant foxtail plant response rating (giant foxtail; [7]) | Morningglory plant response rating (morningglory; [1]) | Plant response rating, Morningglory (morningglory; [3]) | Redroot pigweed plant response rating (pigweed; [7])
6: Bedstraw plant response rating (bedstraw; Rate 250 g/ha, scale 0 to 10) | Plant response rating, Bedstraw (bedstraw; Rate 500 g/ha, scale 0 to 10, 0 is no effect, 10 is complete control) | Plant response rating, Crabgrass (crabgrass; [4]) | Wild oats plant response rating (wild oat; [7])
9: Blackgrass plant response rating (blackgrass; [7]) | Crabgrass plant response rating (crabgrass; [5]) | Plant response rating, Giant foxtail (giant foxtail; [4]) | Giant foxtail plant response rating (giant foxtail; [5])
3: Blackgrass plant response rating (blackgrass; [5]) | Plant response rating, B. signalgrass (surinam grass; [4]) | B. signalgrass plant response rating (surinam grass; [5]) | B. signalgrass plant response rating (surinam grass; [6]) | Crabgrass plant response rating (crabgrass; [1]) | Plant response rating, Redroot pigweed (pigweed; [3]) | Plant response rating, Rape (rape; [3]) | Soybean plant response rating (soybean; [8])
8: Plant response rating, Giant foxtail (giant foxtail; [3]) | Redroot pigweed plant response rating (pigweed; [5])
0: Bedstraw plant response rating (bedstraw; Rate 62 g/ha, scale 0 to 10 (0 no effect, 10 complete control)) | Blackgrass plant response rating (blackgrass; [1]) | Blackgrass plant response rating (blackgrass; [2]) | Blackgrass plant response rating (blackgrass; [8]) | B. signalgrass plant response rating (surinam grass; [1]) | B. signalgrass plant response rating (surinam grass; Postemergence, Rate 250 g/ha, scale 0 to 10, 0 no effect, 10 complete control) | Plant response rating, B. signalgrass (surinam grass; [3]) | B. signalgrass plant response rating (surinam grass; [8]) | Cocklebur plant response rating (cocklebur; [1]) | Cocklebur plant response rating (cocklebur; [2]) | Plant response rating, Cocklebur (cocklebur; [3]) | Plant response rating, Cocklebur (cocklebur; [4]) | Cocklebur plant response rating (cocklebur; [6]) | Cocklebur plant response rating (cocklebur; [7]) | Cocklebur plant response rating (cocklebur; [8]) | Corn plant response rating (corn; [1]) | Corn plant response rating (corn; [2]) | Plant response rating, Corn (corn; [3]) | Plant response rating, Corn (corn; [4]) | Corn plant response rating (corn; [5]) | Corn plant response rating (corn; [7]) | Corn plant response rating (corn; [8]) | Crabgrass plant response rating (crabgrass; [8]) | Giant foxtail plant response rating (giant foxtail; [8]) | Plant response rating, Morningglory (morningglory; [4]) | Morningglory plant response rating (morningglory; [5]) | Morningglory plant response rating (morningglory; [7]) | Redroot pigweed plant response rating (pigweed; [8]) | Rape plant response rating (rape; [1]) | Plant response rating, Rape (rape; [4]) | Rape plant response rating (rape; [5]) | Rape plant response rating (rape; [7]) | Rape plant response rating (rape; [8]) | Plant response rating, Soybean (soybean; [4]) | Soybean plant response rating (soybean; [5]) | Soybean plant response rating (soybean; [7]) | Sugarbeets plant response rating (sugar beet; [1]) | Plant response rating, Sugarbeets (sugar beet; [3]) | Plant response rating, Sugarbeets (sugar beet; [4]) | Sugarbeets plant response rating (sugar beet; [5]) | Sugarbeets plant response rating (sugar beet; [7]) | Sugarbeets plant response rating (sugar beet; [8]) | Velvetleaf plant response rating (velvetleaf; [1]) | Plant response rating, Velvetleaf (velvetleaf; [4]) | Velvetleaf plant response rating (velvetleaf; [5]) | Velvetleaf plant response rating (velvetleaf; [7]) | Wheat plant response rating (wheat; [1]) | Plant response rating, Wheat (wheat; [3]) | Plant response rating, Wheat (wheat; [4]) | Wheat plant response rating (wheat; [5]) | Wheat plant response rating (wheat; [7]) | Wheat plant response rating (wheat; [8]) | Wild oats plant response rating (wild oat; [1]) | Plant response rating, Wild oats (wild oat; [3]) | Plant response rating, Wild oats (wild oat; [4]) | Wild oats plant response rating (wild oat; [5]) | Wild oats plant response rating (wild oat; [8]) | Nutsedge plant response rating (purple nutsedge; [1]) | Plant response rating, Nutsedge (purple nutsedge; [3]) | Plant response rating, Nutsedge (purple nutsedge; [4]) | Nutsedge plant response rating (purple nutsedge; [5]) | Nutsedge plant response rating (purple nutsedge; [7]) | Nutsedge plant response rating (purple nutsedge; [8]) | Plant response rating, Rice (0 to 10 scale, 0 is no effect, 10 is complete control) (rice; [9]) | Rice plant response rating (0 to 10 scale, 0 is no effect, 10 is complete control) (rice; [10]) | Rice plant response rating (rice; [11]) | Rice plant response rating (rice; [12]) | Plant response rating, S. Flatsedge (0 to 10 scale, 0 is no effect, 10 is complete control) (smallflower flatsedge; [9]) | S. Flatsedge plant response rating (0 to 10 scale, 0 is no effect, 10 is complete control) (smallflower flatsedge; [10]) | S. Flatsedge plant response rating (smallflower flatsedge; [11]) | S. Flatsedge plant response rating (smallflower flatsedge; [12]) | Plant response rating, Ducksalad (0 to 10 scale, 0 is no effect, 10 is complete control) (duck salad; [9]) | Ducksalad plant response rating (0 to 10 scale, 0 is no effect, 10 is complete control) (duck salad; [10]) | Ducksalad plant response rating (duck salad; [11]) | Ducksalad plant response rating (duck salad; [12]) | Plant response rating, Barnyardgrass (0 to 10 scale, 0 is no effect, 10 is complete control) (bamyardgrass; [9]) | Barnyardgrass plant response rating (0 to 10 scale, 0 is no effect, 10 is complete control) (bamyardgrass; [10]) | Barnyardgrass plant response rating (bamyardgrass; [11]) | Barnyardgrass plant response rating (bamyardgrass; [12])
1: Plant response rating, Blackgrass (blackgrass; [3]) | Plant response rating, Redroot pigweed (pigweed; [4])
